Data from US20100130598A1, “METHODS FOR INDUCING PROGRAMMED CELL DEATH” (Novogen Research Pty Ltd., priority 2008, published 2010).

Experiments:
Assay type in all cases: cell-based, human
[1] = system: LC3-II; experiment: Western blot of EOC whole cell lysates for LC3-II; settings: EOC cells, 10 g/ml (as printed, FIG. 3 legend)
Source text: (§1) Protein preparation and cellular fractionation. After drug treatment, protein was extracted and measured as previously described (Alvero et al, 2006). For separation of the cytoplasmic and mitochondrial fractions, cell pellets were processed using the ApoAlert™ Cell Fractionation Kit (BD Biosciences, San Jose, Calif.) according to the manufacturer's instructions. For separation of the cytoplasmic and nuclear fractions, pellets were processed using NE-PER Nuclear and Cytoplasmic Extraction (Pierce Biotechnology, Inc., Rockford, Ill.).
(§2) SDS-PAGE and Western blots. Cell lysates (20 μg protein) were denatured in sample buffer (2.5% SDS, 10% glycerol, 5% β-mercapto-ethanol, 0.15 M Tris (pH=6.8) and 0.01% bromophenol blue) and subjected to 12% SDS-PAGE as previously described (Kamsteeg et al, 2003). […]

[2] = system: AIF and EndoG; experiment: Western blot of nuclear fractions for AIF and EndoG; settings: EOC cells, 10 μg/ml
Source text: as §1, §2

[3] = system: Beclin-1 / Bcl2; experiment: Beclin-1 immunoprecipitation from mitochondrial fraction, probed for Bcl2 and Bak; settings: 10 μg/ml, 1 h
Procedure: SDS-PAGE and Western blots. Cell lysates (20 μg protein) were denatured in sample buffer (2.5% SDS, 10% glycerol, 5% β-mercapto-ethanol, 0.15 M Tris (pH=6.8) and 0.01% bromophenol blue) and subjected to 12% SDS-PAGE as previously described (Kamsteeg et al, 2003). The following antibodies and concentrations were used: mouse anti-XIAP (BD, 1:1,000), rabbit anti-MAP LC3 (1:200), rabbit anti-actin (Sigma, 1:10,000), rabbit anti-phosphorylated Akt (Cell Signaling, 1:1,000), rabbit anti-Akt (Cell Signaling, 1:1000), rabbit anti-phosphorylated mTOR (Cell Signaling, 1:1000), rabbit anti-mTOR (Cell Signaling, 1:1000), rabbit anti-cytochrome c (Clontech Laboratories, Inc, Mountainview, Calif., 1:100), rabbit anti-Omi (R&D Systems, Minneapolis, Minn., 1:5000), rabbit anti-Bid (Cell Signaling, 1:1000), mouse anti-Bax (BD Pharmingen, 1:250), rabbit anti-VDAC (Sigma Aldrich, 1:2000), mouse anti-Bcl2 (BD Pharmingen, 1:500), rabbit anti-AIF (Sigma Aldrich, 1:1000), rabbit anti-EndoG (Sigma Aldrich, 1:1000), mouse anti-topoisomerase I (BD Pharmingen, 1:10,000). Proteins were visualized using enhanced chemiluminescence (Pierce, Rockford Ill.).
Immunoprecipitation. […]

[4] = system: XIAP; experiment: Western blot of EOC whole cell lysates for XIAP; settings: EOC cells, 10 g/ml (as printed, FIG. 2 legend)
Source text: as §1, §2

[5] = system: HPAC cells; experiment: Mitochondrial membrane potential by FACS (JC-1), HPAC; settings: dose-dependent, 48 hrs of treatment
Procedure: (§3) Cells. Human pancreatic cell lines HPAC, MIAPaCa-2 and PANC-1 were obtained from the ATCC. (Manassas, Va.). The cells were maintained in DMEM media with Gln and high glucose (Mediatech, Manassas, Va.) with 10% fetal bovine serum (FBS, HyClone, Logan, Utah) and pencillin/streptomycin.
(§4) FACS Analysis. Apoptosis was measured by FACS analysis using Annexin-V-FITC and propidium iodide (PI) (Biovision, Mountain View, Calif.) as probes (Ahn et al., 2003). Mitochondrial membrane potential was measured by FACS analysis using JC-1 (Biovision) as a probe (Ahn et al., 2003). Cell cycle was analyzed on ethanol-fixed, RNaseA-treated cells staining with PI. In each spectrum, 10,000 gated events were recorded and analyzed with a FACSCalibur (BD Biosciences. San Jose, Calif.). All experiments were done in triplicate, error bars represent one standard deviation. Caspase inhibitor I (zVAD-fmk) was obtained from Calbiochem.

[6] = system: PANC-1 cells; experiment: Apoptosis/necrosis by FACS (Annexin-V-FITC/PI), PANC-1; settings: PANC-1, dose-escalating, 48 hr exposure
Procedure: as §3, §4

[7] = system: pancreatic cancer cells; experiment: Simultaneous caspase activation, apoptosis and necrosis (Annexin-V-Cy5/sytox blue) by flow cytometry; settings: Compound 10-treated, 10 μM, 48 hrs
Procedure: as §3
(§5) Caspase Activity After 48 h treatment with 10 μM Compound 10, HPAC, MIAPaCa-2 and PANC-1 cells were harvested by trypsinization and resuspended in DMEM media with 10% FBS. The cells were incubated with caspase substrates for 1 h at 37° C., 5% CO2, then probed with Annexin-V-Cy5 and sytox blue. Caspase +ve cells were gated as shown in the histograms and these cells are indicated on the Annexin-V-Cy5/sytox blue spectra as blue cells. In situ caspase activity was assayed using fluorescent substrates. For Caspase 2, FITC-VDVAD-fmk (Biovision K182-100), for Caspase 3, FITC-DEVD-fmk (K183-100) and for Caspase 9, FITC-LEHD-fmk (K199-100) was used. These substrates bind irreversibly to their respective activated caspases, and caspase activation was quantitated by flow cytometry. After 1 hr incubation at 37° C. in 5% CO2, the cells were washed with DPBS containing 5% FBS and resuspended in Annexin-V binding buffer containing Annexin-V-Cy5 (Biovision K103-3) and sytox blue (Invitrogen), a dye that binds necrotic cells. Caspase activation, apoptosis and necrosis were measured simultaneously using a violet, blue and red laser in a BD LSRII flow cytometer.

[8] = system: Caspase 2, 3 and 9 in HPAC cells; experiment: In situ caspase activity by flow cytometry, HPAC
Procedure: as §3
as §5, with “Caspase Activity After 48 h treatment with 10 μM Compound 10, HPAC, MIAPaCa-2 and PANC-1 cells were harvested by trypsinization and resuspended in DMEM media with 10% FBS.” left out

[9] = system: MIAPaCa-2 cells; experiment: Apoptosis/necrosis by FACS (Annexin-V-FITC/PI), MIAPaCa-2
Procedure: as §3, §4

[10] = MIAPaCa-2, dose-escalating, 48 hr exposure

SMILES	levels of LC3-II [1]	level of nuclear AIF [2]	level of nuclear EndoG [2]	Bak in complex with Beclin-1 [3]	Bcl2 in complex with Beclin-1 ([3]; vs no treatment control)	status of XIAP [4]	mitochondrial depolarization [5]	apoptosis [6]	necrosis [6]	caspase positive cells that bound both Annexin-V-Cy5 and sytox blue (later stages of apoptosis) [7]	caspase positive cells that were Annexin-V positive and sytox blue negative (early stages of apoptosis) [7]	caspase positive cells that were sytox blue positive and Annexin-V negative (necrosis) [7]	caspase 2 and caspase 9 induction ([8]; 10 μM, after 48 hrs)	caspase-3 induction ([8]; 10 μM, after 48 hrs)	caspase 9 activation ([8]; 30 μM, data not shown)	effect of zVAD-fmk pre-treatment on induced necrosis ([9]; MIAPaCa-2, 10 μM zVAD-fmk 1 h before 10 μM Compound 10)	effect of zVAD-fmk pre-treatment on induced apoptosis ([9]; MIAPaCa-2, 10 μM zVAD-fmk 1 h pre-treatment, 10 μM Compound 10 or 50 ng/mL TRAIL)	apoptosis [9, 10]	necrosis [9, 10]
COc1ccc(C2c3ccc(O)c(C)c3OCC2c2ccc(O)cc2)cc1 (stereo not shown) [Compound 1, 3-(4-hydroxyphenyl)-4-(4-methoxyphenyl)-8-methylchroman-7-ol]	significant increase	not	increase	not observed	Higher levels	no change													
COc1ccc(C2c3ccc(O)cc3OCC2c2ccc(O)cc2)cc1 (stereo not shown) [Compound 10, 3-(4-hydroxyphenyl)-4-(4-methoxyphenyl)chroman-7-ol]							depolarized	induced apoptosis in a dose-dependent fashion	Very little necrosis	Approximately 30%	Approximately 60%	Less than 5%	neither caspase 2 or caspase 9 were induced	modestly induced	activated	inhibited	apparently enhanced	induced apoptosis in a dose-dependent fashion	Very little necrosis
